Measured values taken from PubChem BioAssay (NCI).
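Where inhibition never reached the appropriate level, the endpoint shown equals the highest concentration tested. Otherwise, values were interpolated linearly from a five-concentration, 48-hour dose response in 96-well plates. GI50 = concentration required for 50% inhibition of growth. TGI: total growth inhibition.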

Columns and labels:
Test in all cases: NCI anticancer screen, dose series, 48 h
[1] = test system: HS 578T breast
[2] = test system: SK-OV-3 ovarian
[3] = test system: HCT-15 colon
[4] = test system: COLO 205 colon
[5] = test system: A549 NSCLC
[6] = test system: T-47D breast
[7] = test system: NCI-H460 lung
[8] = test system: TK-10 renal
[9] = test system: UACC-257 melanoma
[10] = test system: HOP-92 NSCLC
[11] = test system: HL-60(TB) leukemia
[12] = test system: A498 renal
[13] = test system: MOLT-4 leukemia
[14] = test system: NCI-H522 lung
[15] = test system: SF-539 CNS
[16] = test system: M14 melanoma
[17] = test system: SR leukemia
[18] = test system: SN12C renal
[19] = test system: MCF7 breast
[20] = test system: RPMI-8226 leukemia
[21] = test system: UACC-62 melanoma
[22] = test system: K-562 leukemia
[23] = test system: NCI-H226 lung
[24] = test system: NCI-H23 lung
[25] = test system: SNB-75 CNS
[26] = test system: SK-MEL-2 melanoma
[27] = test system: HCT-116 colon
[28] = test system: CAKI-1 renal
[29] = test system: PC-3 prostate
[30] = test system: CCRF-CEM leukemia
[31] = test system: KM12 colon
[32] = test system: ACHN renal
[33] = test system: 786-0 renal
[34] = test system: U251 CNS
[35] = test system: SF-295 CNS
[36] = test system: SNB-19 CNS
[37] = test system: SF-268 CNS
[38] = test system: IGROV1 ovarian
[39] = test system: SK-MEL-28 melanoma
[40] = test system: SK-MEL-5 melanoma
[41] = test system: BT-549 breast
[42] = test system: LOX IMVI melanoma
[43] = test system: MALME-3M melanoma
[44] = test system: UO-31 renal
[45] = test system: EKVX NSCLC
[46] = test system: NCI/ADR-RES ovarian
[47] = test system: DU-145 prostate
[48] = test system: MDA-MB-435

CCOC(=O)c1sc(-c2ccc(OS(=O)(=O)c3cccs3)c(C=O)c2)nc1C
GI50 [1]: 2.1 µM
TGI [1]: 5.3 µM
GI50 [2]: 3.25 µM
TGI [2]: 7.79 µM
GI50 [3]: 0.561 µM
TGI [3]: 2.13 µM
GI50 [4]: 2.01 µM
TGI [4]: 3.9 µM
GI50 [5]: 2.3 µM
TGI [5]: 6.72 µM
GI50 [6]: 1.21 µM
TGI [6]: 5.02 µM
GI50 [7]: 2.22 µM
TGI [7]: 4.96 µM
GI50 [8]: 1.27 µM
TGI [8]: 4.33 µM
GI50 [9]: 2.51 µM
TGI [9]: 6.35 µM
GI50 [10]: 1.36 µM
TGI [10]: 4.24 µM
GI50 [11]: 1.89 µM
TGI [11]: 4.93 µM
GI50 [12]: 1.58 µM
TGI [12]: 3.18 µM
GI50 [13]: 1.47 µM
TGI [13]: 4.02 µM
GI50 [14]: 1.51 µM
TGI [14]: 3.43 µM
GI50 [15]: 1.82 µM
TGI [15]: 3.42 µM
GI50 [16]: 1.9 µM
TGI [16]: 3.86 µM
GI50 [17]: 1.82 µM
TGI [17]: > 100 µM
GI50 [18]: 1.98 µM
TGI [18]: 5.75 µM
GI50 [19]: 1.88 µM
TGI [19]: 4.51 µM
GI50 [20]: 1.01 µM
TGI [20]: 4.72 µM
GI50 [21]: 1.43 µM
TGI [21]: 2.92 µM
GI50 [22]: 0.574 µM
TGI [22]: > 100 µM
GI50 [23]: 1.88 µM
TGI [23]: 4.93 µM
GI50 [24]: 1.76 µM
TGI [24]: 4.54 µM
GI50 [25]: 1.57 µM
TGI [25]: 4.07 µM
GI50 [26]: 2.06 µM
TGI [26]: 4.78 µM
GI50 [27]: 0.732 µM
TGI [27]: 2.15 µM
GI50 [28]: 1.31 µM
TGI [28]: 3.94 µM
GI50 [29]: 1.26 µM
TGI [29]: 4.81 µM
GI50 [30]: 2.16 µM
TGI [30]: 5.38 µM
GI50 [31]: 1.47 µM
TGI [31]: 3.24 µM
GI50 [32]: 2.06 µM
TGI [32]: 5.88 µM
GI50 [33]: 1.86 µM
TGI [33]: 4.54 µM
GI50 [34]: 1.19 µM
TGI [34]: 2.83 µM
GI50 [35]: 1.72 µM
TGI [35]: 3.36 µM
GI50 [36]: 1.37 µM
TGI [36]: 2.95 µM
GI50 [37]: 1.91 µM
TGI [37]: 4.42 µM
GI50 [38]: 1.29 µM
TGI [38]: 3.41 µM
GI50 [39]: 2.01 µM
TGI [39]: 4.07 µM
GI50 [40]: 1.56 µM
TGI [40]: 3 µM
GI50 [41]: 1.68 µM
TGI [41]: 3.19 µM
GI50 [42]: 1.77 µM
TGI [42]: 3.33 µM
GI50 [43]: 2.22 µM
TGI [43]: 5.69 µM
GI50 [44]: 1.73 µM
TGI [44]: 5.13 µM
GI50 [45]: 1.88 µM
TGI [45]: 5.4 µM
GI50 [46]: 1.8 µM
TGI [46]: 6.17 µM
GI50 [47]: 2.43 µM
TGI [47]: 6.78 µM
GI50 [48]: 1.59 µM
TGI [48]: 3.05 µM
